Data on 13 compounds can be found in patent US20260327191A1, “GSK3a INHIBITORS AND METHODS OF USE THEREOF” (Blueprint Medicines Corporation, priority 2023, published 2026).

In test [1] the target is T1, GSK3B (Homo sapiens, UniProt P49841). Nature of the test: NanoBRET cellular target engagement assay, Nanoluc-GSK3B in HEK293 cells. In kind it is cell-based. On the set-up: expressed in transfected cells. Conditions: NanoBRET GSK3β IC50, HEK293 cells, tracer K-8, 2 hours, 37° C. For orientation: In BRET a luciferase serves as donor, and the signal depends on an acceptor being close.
T1 sequence (P49841 whole entry): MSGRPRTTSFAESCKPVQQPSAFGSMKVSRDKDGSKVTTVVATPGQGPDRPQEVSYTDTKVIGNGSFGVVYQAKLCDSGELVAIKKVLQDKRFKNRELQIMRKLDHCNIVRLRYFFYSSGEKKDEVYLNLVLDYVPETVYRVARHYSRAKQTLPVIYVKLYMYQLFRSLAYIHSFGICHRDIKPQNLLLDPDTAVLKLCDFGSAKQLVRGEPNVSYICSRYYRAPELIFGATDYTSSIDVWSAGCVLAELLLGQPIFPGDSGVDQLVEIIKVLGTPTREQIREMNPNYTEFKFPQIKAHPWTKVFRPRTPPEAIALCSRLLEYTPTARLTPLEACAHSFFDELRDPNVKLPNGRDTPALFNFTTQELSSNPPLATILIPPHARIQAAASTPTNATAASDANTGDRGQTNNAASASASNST

In the next test the target is T2, GSK3A (Homo sapiens, UniProt P49840).
T2 construct: expressed in transfected cells
T2 sequence (P49840 whole entry): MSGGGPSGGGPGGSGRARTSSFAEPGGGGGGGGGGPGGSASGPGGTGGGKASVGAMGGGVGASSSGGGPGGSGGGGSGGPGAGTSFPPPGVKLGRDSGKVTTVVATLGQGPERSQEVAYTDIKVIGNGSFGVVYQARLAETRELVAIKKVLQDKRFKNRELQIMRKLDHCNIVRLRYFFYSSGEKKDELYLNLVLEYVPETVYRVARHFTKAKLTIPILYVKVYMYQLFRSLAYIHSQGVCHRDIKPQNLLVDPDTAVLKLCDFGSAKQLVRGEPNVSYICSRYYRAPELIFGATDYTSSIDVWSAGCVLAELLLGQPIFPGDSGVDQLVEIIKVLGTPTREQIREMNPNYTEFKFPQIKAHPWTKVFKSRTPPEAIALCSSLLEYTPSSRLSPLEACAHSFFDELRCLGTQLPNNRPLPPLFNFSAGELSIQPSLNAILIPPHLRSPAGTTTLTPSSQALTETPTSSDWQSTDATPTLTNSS
Nature of the test: NanoBRET cellular target engagement assay, Nanoluc-GSK3A in HEK293 cells. As to conditions: NanoBRET GSK3α IC50, HEK293 cells, tracer K-8, 2 hours, 37° C. The class given is cell-based.

Test [2] has as its target T1, GSK3B. Description: In vitro enzymatic activity assay, GSK3β. In kind it is biochemical. Also noted: Full length human GSK3α or GSK3B expressed as N-terminal GST fusion proteins; GST (N); purchased Carna Biosciences (Japan); host or cells: baculovirus host. As to conditions: 1.0 mM ATP, 1.0 μM peptide substrate, 120 min, 25° C, read-out: Enzyme GSK3β (IC50).
In the next test the target is T3, human GSK3α (Homo sapiens, UniProt P49840).
T3 construct: Full length human GSK3α or GSK3B expressed as N-terminal GST fusion proteins; GST (N); purchased Carna Biosciences (Japan); host or cells: baculovirus host
T3 sequence (P49840 whole entry, the tested form may be a part): as the sequence (P49840 whole entry) above
Nature of the test: In vitro enzymatic activity assay, GSK3α. The class given is biochemical. As to conditions: 1.0 mM ATP, 1.0 μM peptide substrate, 120 min, 25° C, read-out: Enzyme GSK3α (IC50).

SMILES strings stand for the structures. Where a name gives a salt, the structure may show the parent alone.

By IC50 is commonly meant the point on the concentration scale where inhibition reaches its midpoint. Take `COc1cc(Cl)c(-n2cnc(N)c(C(=O)Nc3cncc([C@]4(N)CCCOC4)c3)c2=O)c(Cl)c1` (single isomer, unassigned) [Example 188, R)-4-amino-N-(5-(3-aminotetrahydro-2H-pyran-3-yl)pyridin-3-yl)-1-(2,6-dichloro-4-methoxyphenyl)-6-oxo-1,6-dihydropyrimidine-5-carboxamide or (S)-4-amino-N-(5-(3-aminotetrahydro-2H-pyran-3-yl)pyridin-3-yl)-1-(2,6-dichloro-4-methoxyphenyl)-6-oxo-1,6-dihydropyrimidine-5-carboxamide]: the IC50 against GSK3B [1] was 345 nM; against GSK3A, 3.9 nM; at GSK3B [2], 460 nM; on human GSK3α it was 10.4 nM.

For the compound `Nc1ncn(-c2c(Cl)cccc2Cl)c(=O)c1C(=O)Nc1cccc([C@@H]2CNC(=O)CN2)c1` (single isomer, unassigned) [Example 189, (R)-4-amino-1-(2,6-dichlorophenyl)-6-oxo-N-(3-(5-oxopiperazin-2-yl)phenyl)-1,6-dihydropyrimidine-5-carboxamide or (S)-4-amino-1-(2,6-dichlorophenyl)-6-oxo-N-(3-(5-oxopiperazin-2-yl)phenyl)-1,6-dihydropyrimidine-5-carboxamide], the IC50 was 4580 nM against GSK3B [1], 69.4 nM at GSK3A, 2160 nM on GSK3B [2] and 133 nM on human GSK3α.

In the case of `Nc1ncn(-c2c(Cl)cccc2Cl)c(=O)c1C(=O)Nc1cccc([C@@H]2CNC(=O)CN2)c1` (single isomer, unassigned) [Example 190, (R)-4-amino-1-(2,6-dichlorophenyl)-6-oxo-N-(3-(5-oxopiperazin-2-yl)phenyl)-1,6-dihydropyrimidine-5-carboxamide or (S)-4-amino-1-(2,6-dichlorophenyl)-6-oxo-N-(3-(5-oxopiperazin-2-yl)phenyl)-1,6-dihydropyrimidine-5-carboxamide], the IC50 was found to be 3300 nM at GSK3B [1], 26.7 nM against GSK3A, 971 nM on GSK3B [2] and 37.6 nM at human GSK3α.

For the compound `Nc1ncn(-c2c(Cl)cccc2Cl)c(=O)c1C(=O)Nc1cccc([C@H]2CC[C@H](CO)N2)c1` (single isomer, unassigned) [Example 191, 4-amino-1-(2,6-dichlorophenyl)-N-(3-((2R,5R)-5-(hydroxymethyl)pyrrolidin-2-yl)phenyl)-6-oxo-1,6-dihydropyrimidine-5-carboxamide or 4-amino-1-(2,6-dichlorophenyl)-N-(3-((2S,5S)-5-(hydroxymethyl)pyrrolidin-2-yl)phenyl)-6-oxo-1,6-dihydropyrimidine-5-carboxamide], the IC50 turned out to be 304 nM against GSK3B [1], 4.7 nM against GSK3A, 230 nM on GSK3B [2] and 5.7 nM at human GSK3α.

Regarding `CN[C@@H](C)c1cncc(NC(=O)c2c(N)ncn(-c3c(Cl)cc(OC4CC4)cc3Cl)c2=O)c1` (single isomer, unassigned) [Example 195, (S)-4-amino-1-(2,6-dichloro-4-cyclopropoxyphenyl)-N-(5-(1-(methylamino)ethyl)pyridin-3-yl)-6-oxo-1,6-dihydropyrimidine-5-carboxamide or (R)-4-amino-1-(2,6-dichloro-4-cyclopropoxyphenyl)-N-(5-(1-(methylamino)ethyl)pyridin-3-yl)-6-oxo-1,6-dihydropyrimidine-5-carboxamide], the IC50 against GSK3B [1] was found to be 462 nM; against GSK3A it was 5.4 nM; at GSK3B [2], 632 nM; at human GSK3α, 11 nM.

For `COCC[C@@H](N)c1cncc(NC(=O)c2c(N)ncn(-c3c(Cl)cccc3Cl)c2=O)c1` (single isomer, unassigned) [Example 197, (R)-4-amino-N-(5-(1-amino-3-methoxypropyl)pyridin-3-yl)-1-(2,6-dichlorophenyl)-6-oxo-1,6-dihydropyrimidine-5-carboxamide or (S)-4-amino-N-(5-(1-amino-3-methoxypropyl)pyridin-3-yl)-1-(2,6-dichlorophenyl)-6-oxo-1,6-dihydropyrimidine-5-carboxamide], the IC50 at GSK3B [1] was determined as 403 nM; on GSK3A, 7.2 nM; at GSK3B [2], 850 nM; on human GSK3α, 15 nM.

On to `COc1cc(Cl)c(-n2cnc(N)c(C(=O)Nc3cncc([C@@H](N)C(F)F)c3)c2=O)c(Cl)c1` (single isomer, unassigned) [Example 204, (R)-4-amino-N-(5-(1-amino-2,2-difluoroethyl)pyridin-3-yl)-1-(2,6-dichloro-4-methoxyphenyl)-6-oxo-1,6-dihydropyrimidine-5-carboxamide or (S)-4-amino-N-(5-(1-amino-2,2-difluoroethyl)pyridin-3-yl)-1-(2,6-dichloro-4-methoxyphenyl)-6-oxo-1,6-dihydropyrimidine-5-carboxamide], for which the IC50 against GSK3B [1] amounted to 782 nM; against GSK3A, 8.8 nM; on GSK3B [2], 706 nM; at human GSK3α it was 13.5 nM.

With `COc1cc(C)c(-n2cnc(N)c(C(=O)N[C@@H]3CCC[C@H](CN)C3)c2=O)c(Cl)c1` (single isomer, unassigned) [Example 206, 4-amino-N-((1R,3S)-3-(aminomethyl)cyclohexyl)-1-((S)-2-chloro-4-methoxy-6-methylphenyl)-6-oxo-1,6-dihydropyrimidine-5-carboxamide or 4-amino-N-((1S,3R)-3-(aminomethyl)cyclohexyl)-1-((S)-2-chloro-4-methoxy-6-methylphenyl)-6-oxo-1,6-dihydropyrimidine-5-carboxamide], the IC50 stood at 139 nM against GSK3B [1], 3.1 nM against GSK3A, 260 nM at GSK3B [2] and 9.4 nM on human GSK3α.

As for `Nc1ncn(-c2c(Cl)cccc2Cl)c(=O)c1C(=O)Nc1cccc([C@@H]2COCCCN2)c1` (single isomer, unassigned) [Example 211, (R)—N-(3-(1,4-oxazepan-3-yl)phenyl)-4-amino-1-(2,6-dichlorophenyl)-6-oxo-1,6-dihydropyrimidine-5-carboxamide or (S)—N-(3-(1,4-oxazepan-3-yl)phenyl)-4-amino-1-(2,6-dichlorophenyl)-6-oxo-1,6-dihydropyrimidine-5-carboxamide], the IC50 at GSK3B [1] is 797 nM; at GSK3A, 8.6 nM; at GSK3B [2], 888 nM; on human GSK3α, 15.9 nM.

Turning to `COc1cc(Cl)c(-n2cnc(N)c(C(=O)Nc3cncc(C4COCCN4)c3)c2=O)c(Cl)c1` (single isomer, unassigned) [Example 212, (S)-4-amino-1-(2,6-dichloro-4-methoxyphenyl)-N-(5-(morpholin-3-yl)pyridin-3-yl)-6-oxo-1,6-dihydropyrimidine-5-carboxamide or (R)-4-amino-1-(2,6-dichloro-4-methoxyphenyl)-N-(5-(morpholin-3-yl)pyridin-3-yl)-6-oxo-1,6-dihydropyrimidine-5-carboxamide], the concentration for half-maximal inhibition (IC50) against GSK3B [1] turned out to be 520 nM; against GSK3A, 7.6 nM; on GSK3B [2] it was 272 nM; at human GSK3α, 4.7 nM.

As to `COc1cc(Cl)c(-n2cnc(N)c(C(=O)Nc3cncc([C@@H]4CCN4)c3)c2=O)c(Cl)c1` (single isomer, unassigned) [Example 213, (S)-4-amino-N-(5-(azetidin-2-yl)pyridin-3-yl)-1-(2,6-dichloro-4-methoxyphenyl)-6-oxo-1,6-dihydropyrimidine-5-carboxamide or (R)-4-amino-N-(5-(azetidin-2-yl)pyridin-3-yl)-1-(2,6-dichloro-4-methoxyphenyl)-6-oxo-1,6-dihydropyrimidine-5-carboxamide], the IC50 is 992 nM against GSK3B [1], 7.8 nM on GSK3A, 1760 nM on GSK3B [2] and 33.2 nM on human GSK3α.

For `COc1cc(Cl)c(-n2cnc(N)c(C(=O)Nc3cncc([C@@H]4C[C@@H](C)N4)c3)c2=O)c(Cl)c1` (single isomer, unassigned) [Example 214, 4-amino-1-(2,6-dichloro-4-methoxyphenyl)-N-(5-((2S,4R)-4-methylazetidin-2-yl)pyridin-3-yl)-6-oxo-1,6-dihydropyrimidine-5-carboxamide formate or 4-amino-1-(2,6-dichloro-4-methoxyphenyl)-N-(5-((2R,4S)-4-methylazetidin-2-yl)pyridin-3-yl)-6-oxo-1,6-dihydropyrimidine-5-carboxamide formate], the IC50 at GSK3B [1] was 640 nM; on GSK3A it was 8.9 nM; on GSK3B [2] it was 930 nM; on human GSK3α, 17.3 nM.

With `Nc1ncn(-c2c(Cl)cccc2Cl)c(=O)c1C(=O)Nc1cncc([C@H]2CCOCCN2)c1` (single isomer, unassigned) [Example 215, (R)—N-(5-(1,4-oxazepan-5-yl)pyridin-3-yl)-4-amino-1-(2,6-dichlorophenyl)-6-oxo-1,6-dihydropyrimidine-5-carboxamide or (S)—N-(5-(1,4-oxazepan-5-yl)pyridin-3-yl)-4-amino-1-(2,6-dichlorophenyl)-6-oxo-1,6-dihydropyrimidine-5-carboxamide], the IC50 is 690 nM against GSK3B [1], 8.5 nM at GSK3A, 500 nM at GSK3B [2] and 7.2 nM at human GSK3α.
